# Experimental data from publication PMC8162404, “Proteomimetic surface fragments distinguish targets by function” (Chemical Science, 2020).
# Columns and labels:
# Gal-1 [1] = target: T1, Gal-1 (Homo sapiens, UniProt P09382); experiment: Competition pull-down with lactose; assay type: binding; details: H14 library; lactose 10 mM; read-out: Surface mapping KD (apparent), competition
# T1 construct: made in house; host or cells: E. coli BL21(DE3)
# In short: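 His6-tagged proteins immobilized on Co-NTA resin at 64 µM final with 64-member LSM foldamer sublibraries (1 M each, as printed) in pH 7.4 HEPES/NaCl buffers (Ca2+/TCEP per target), 30 min RT; competitor peptides 200 µM final, lactose 10 mM for Gal-1. Bound fractions from LC-MS loss vs protein-free resin; KD assuming 1:1 binding.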
# CaM [2] = target: T2, CaM (Bos taurus, UniProt P62157); experiment: Competition pull-down with native ligand TRPV1-Ct15; assay type: binding, bovine; details: H14 library; competitor peptide 200 µM; read-out: Surface mapping KD (apparent), competition
# T2 construct: made in house; host or cells: E. coli BL21 (DE3)
# Gal-1 [3] = target: T1, Gal-1; experiment: Pull-down assay with immobilized protein and LSM libraries; assay type: binding; details: H14 library; 1:1 binding assumed; read-out: Surface mapping KD (apparent)
# In short: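 His-tagged protein immobilized on Co-NTA resin (64 µM) in 20 mM HEPES pH 7.4, 150 mM NaCl, equilibrated 30 min at room temperature with foldamer LSM sublibraries at equimolar total concentration. Unbound fractions quantified by HPLC-MS versus protein-free resin control; apparent KD assumes 1:1 binding.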
# S100B = target: T3, S100B (Homo sapiens, UniProt P04271); experiment: as above; assay type: binding; details: H14 library; 1:1 binding assumed; read-out: Surface mapping KD (apparent)
# T3 construct: made in house; host or cells: Escherichia coli BL21(DE3)
# T3 sequence (P04271 1-92): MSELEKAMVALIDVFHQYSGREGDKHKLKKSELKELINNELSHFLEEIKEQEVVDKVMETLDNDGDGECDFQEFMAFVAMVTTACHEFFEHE
# In short: (§1)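 Buffers were HEPES pH 7.4 with 150 mM NaCl, plus 1 mM TCEP and 1 mM CaCl2 (50 mM HEPES) for S100A4 and S100B, 1 mM TCEP for Gal-1, and no additive for RecQ-WH. Immobilized protein at 64 µM was equilibrated 30 min with the LSM sublibrary, and unbound probes were measured by LC-MS.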
# CaM [4] = target: T2, CaM; experiment: as above; assay type: binding, bovine; details: H14 library; 1:2 stoichiometry assumed; read-out: Surface mapping KD (apparent)
# In short: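 His-tagged protein immobilized on Co-NTA resin, equilibrated 30 min at room temperature with LSM sublibraries (64 members, […]), equimolar protein to total probe. CaM buffer: 20 mM HEPES pH 7.4, 150 mM NaCl, 5 mM CaCl2. Bound fractions from HPLC-MS loss of unbound probe versus protein-free resin control; Kd derived.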
# S100A4 = target: T4, S100A4 (Homo sapiens, UniProt P26447); experiment: as above; assay type: binding; details: H14 library; 1:1 binding assumed; read-out: Surface mapping KD (apparent)
# T4 construct: made in house; host or cells: Escherichia coli BL21(DE3)
# T4 sequence (P26447 whole entry): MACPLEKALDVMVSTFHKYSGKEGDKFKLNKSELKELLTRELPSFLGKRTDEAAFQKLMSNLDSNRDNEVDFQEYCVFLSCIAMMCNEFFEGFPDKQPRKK
# In short: as §1
# T1 sequence (P09382 whole entry): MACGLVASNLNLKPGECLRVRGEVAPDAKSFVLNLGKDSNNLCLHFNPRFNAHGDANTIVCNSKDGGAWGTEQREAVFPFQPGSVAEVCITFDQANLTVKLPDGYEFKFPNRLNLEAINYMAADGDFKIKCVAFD
Compound,Kd (Gal-1 [1]) [µM],Kd (CaM [2]) [µM],Kd (Gal-1 [3]) [µM],Kd (S100B) [µM],Kd (CaM [4]) [µM],Kd (S100A4) [µM]
NC(=O)C[C@@H](CC(=O)N[C@H]1CCCC[C@@H]1C(=O)N[C@H]1CCCC[C@@H]1C(=O)N[C@H](CC(=O)N[C@H]1CCCC[C@@H]1C(N)=O)Cc1ccccc1)NC(=O)[C@H]1CCCC[C@@H]1N [H14 NF],250,339,264,123,45,
CC[C@H](C)[C@@H](CC(=O)N[C@H]1CCCC[C@@H]1C(N)=O)NC(=O)[C@H]1CCCC[C@@H]1NC(=O)[C@H]1CCCC[C@@H]1NC(=O)C[C@H](CC(N)=O)NC(=O)[C@H]1CCCC[C@@H]1N [H14 NI],323,283,258,,80,472
NCCCC[C@@H](CC(=O)N[C@H]1CCCC[C@@H]1C(N)=O)NC(=O)[C@H]1CCCC[C@@H]1NC(=O)[C@H]1CCCC[C@@H]1NC(=O)C[C@H](CC(N)=O)NC(=O)[C@H]1CCCC[C@@H]1N [H14 NK],342,254,,270,82,
CC(C)C[C@@H](CC(=O)N[C@H]1CCCC[C@@H]1C(N)=O)NC(=O)[C@H]1CCCC[C@@H]1NC(=O)[C@H]1CCCC[C@@H]1NC(=O)C[C@H](CC(N)=O)NC(=O)[C@H]1CCCC[C@@H]1N [H14 NL],338,345,259,,76,472
N=C(N)NCCC[C@@H](CC(=O)N[C@H]1CCCC[C@@H]1C(N)=O)NC(=O)[C@H]1CCCC[C@@H]1NC(=O)[C@H]1CCCC[C@@H]1NC(=O)C[C@H](CC(N)=O)NC(=O)[C@H]1CCCC[C@@H]1N [H14 NR],247,434,114,128,58,
CC(C)[C@@H](CC(=O)N[C@H]1CCCC[C@@H]1C(N)=O)NC(=O)[C@H]1CCCC[C@@H]1NC(=O)[C@H]1CCCC[C@@H]1NC(=O)C[C@H](CC(N)=O)NC(=O)[C@H]1CCCC[C@@H]1N [H14 NV],378,261,349,,115,395
NC(=O)C[C@@H](CC(=O)N[C@H]1CCCC[C@@H]1C(=O)N[C@H]1CCCC[C@@H]1C(=O)N[C@H](CC(=O)N[C@H]1CCCC[C@@H]1C(N)=O)Cc1c[nH]c2ccccc12)NC(=O)[C@H]1CCCC[C@@H]1N [H14 NW],185,269,169,98,38,
CC[C@H](C)[C@@H](CC(=O)N[C@H]1CCCC[C@@H]1C(N)=O)NC(=O)[C@H]1CCCC[C@@H]1NC(=O)[C@H]1CCCC[C@@H]1NC(=O)C[C@H](CCC(N)=O)NC(=O)[C@H]1CCCC[C@@H]1N [H14 QI],486,241,456,,82,256
NCCCC[C@@H](CC(=O)N[C@H]1CCCC[C@@H]1C(N)=O)NC(=O)[C@H]1CCCC[C@@H]1NC(=O)[C@H]1CCCC[C@@H]1NC(=O)C[C@H](CCC(N)=O)NC(=O)[C@H]1CCCC[C@@H]1N [H14 QK],146,208,158,81,96,382
CC(C)C[C@@H](CC(=O)N[C@H]1CCCC[C@@H]1C(N)=O)NC(=O)[C@H]1CCCC[C@@H]1NC(=O)[C@H]1CCCC[C@@H]1NC(=O)C[C@H](CCC(N)=O)NC(=O)[C@H]1CCCC[C@@H]1N [H14 QL],458,241,457,,87,256
CSCC[C@@H](CC(=O)N[C@H]1CCCC[C@@H]1C(N)=O)NC(=O)[C@H]1CCCC[C@@H]1NC(=O)[C@H]1CCCC[C@@H]1NC(=O)C[C@H](CCC(N)=O)NC(=O)[C@H]1CCCC[C@@H]1N [H14 QM],406,317,364,,51,448
N=C(N)NCCC[C@@H](CC(=O)N[C@H]1CCCC[C@@H]1C(N)=O)NC(=O)[C@H]1CCCC[C@@H]1NC(=O)[C@H]1CCCC[C@@H]1NC(=O)C[C@H](CCC(N)=O)NC(=O)[C@H]1CCCC[C@@H]1N [H14 QR],272,291,71,107,43,344
CC(C)[C@@H](CC(=O)N[C@H]1CCCC[C@@H]1C(N)=O)NC(=O)[C@H]1CCCC[C@@H]1NC(=O)[C@H]1CCCC[C@@H]1NC(=O)C[C@H](CCCNC(=N)N)NC(=O)[C@H]1CCCC[C@@H]1N [H14 RV],418,219,,63,26,72
CC[C@H](C)[C@@H](CC(=O)N[C@H]1CCCC[C@@H]1C(N)=O)NC(=O)[C@H]1CCCC[C@@H]1NC(=O)[C@H]1CCCC[C@@H]1NC(=O)C[C@H](CO)NC(=O)[C@H]1CCCC[C@@H]1N [H14 SI],478,471,336,380,75,19
CC(C)C[C@@H](CC(=O)N[C@H]1CCCC[C@@H]1C(N)=O)NC(=O)[C@H]1CCCC[C@@H]1NC(=O)[C@H]1CCCC[C@@H]1NC(=O)C[C@H](CO)NC(=O)[C@H]1CCCC[C@@H]1N [H14 SL],325,436,251,380,64,19
CSCC[C@@H](CC(=O)N[C@H]1CCCC[C@@H]1C(N)=O)NC(=O)[C@H]1CCCC[C@@H]1NC(=O)[C@H]1CCCC[C@@H]1NC(=O)C[C@H](CO)NC(=O)[C@H]1CCCC[C@@H]1N [H14 SM],352,210,356,,43,26
C[C@@H](O)[C@@H](CC(=O)N[C@H]1CCCC[C@@H]1C(N)=O)NC(=O)[C@H]1CCCC[C@@H]1NC(=O)[C@H]1CCCC[C@@H]1NC(=O)C[C@H](CO)NC(=O)[C@H]1CCCC[C@@H]1N [H14 ST],413,307,,,215,323
CC(C)[C@@H](CC(=O)N[C@H]1CCCC[C@@H]1C(N)=O)NC(=O)[C@H]1CCCC[C@@H]1NC(=O)[C@H]1CCCC[C@@H]1NC(=O)C[C@H](CO)NC(=O)[C@H]1CCCC[C@@H]1N [H14 SV],476,398,221,,101,34
C[C@@H](CC(=O)N[C@H]1CCCC[C@@H]1C(N)=O)NC(=O)[C@H]1CCCC[C@@H]1NC(=O)[C@H]1CCCC[C@@H]1NC(=O)C[C@@H](NC(=O)[C@H]1CCCC[C@@H]1N)[C@@H](C)O [H14 TA],426,398,425,,244,338
C[C@@H](O)[C@@H](CC(=O)N[C@H]1CCCC[C@@H]1C(=O)N[C@H]1CCCC[C@@H]1C(=O)N[C@@H](CCC(=O)O)CC(=O)N[C@H]1CCCC[C@@H]1C(N)=O)NC(=O)[C@H]1CCCC[C@@H]1N [H14 TE],366,281,244,,285,
C[C@@H](O)[C@@H](CC(=O)N[C@H]1CCCC[C@@H]1C(=O)N[C@H]1CCCC[C@@H]1C(=O)N[C@@H](CO)CC(=O)N[C@H]1CCCC[C@@H]1C(N)=O)NC(=O)[C@H]1CCCC[C@@H]1N [H14 TS],390,487,408,,71,
C[C@@H](O)[C@@H](CC(=O)N[C@H]1CCCC[C@@H]1C(N)=O)NC(=O)[C@H]1CCCC[C@@H]1NC(=O)[C@H]1CCCC[C@@H]1NC(=O)C[C@@H](NC(=O)[C@H]1CCCC[C@@H]1N)[C@@H](C)O [H14 TT],431,416,366,,253,
CC(C)[C@@H](CC(=O)N[C@H]1CCCC[C@@H]1C(N)=O)NC(=O)[C@H]1CCCC[C@@H]1NC(=O)[C@H]1CCCC[C@@H]1NC(=O)C[C@@H](NC(=O)[C@H]1CCCC[C@@H]1N)[C@@H](C)O [H14 TV],424,376,399,,113,
C[C@@H](O)[C@@H](CC(=O)N[C@H]1CCCC[C@@H]1C(=O)N[C@H]1CCCC[C@@H]1C(=O)N[C@H](CC(=O)N[C@H]1CCCC[C@@H]1C(N)=O)Cc1ccc(O)cc1)NC(=O)[C@H]1CCCC[C@@H]1N [H14 TY],338,226,297,180,84,
